Structures can show the parent of a compound that is named as a salt. Where two headings read alike, the source gives them in different places.
What was measured:
[1] = molecular target: PI 3-kinase alpha (Homo sapiens, UniProt P42336); assay: Kinase Glo Luminescent Kinase Assay (Kglo), assay A; assay type: biochemical; conditions: read-out: Assay A PI3Kα IC50
[2] = molecular target: PI 3-kinase beta (Homo sapiens, UniProt P42338); assay: Kinase Glo Luminescent Kinase Assay (Kglo), assay B; assay type: biochemical; conditions: read-out: Assay B PI3Kβ IC50
[3] = molecular target: Vps34 (Homo sapiens, UniProt Q8NEB9); assay: Kinase Glo Luminescent Kinase Assay (Kglo), assay C; assay type: biochemical; conditions: read-out: Assay C VPS34 IC50
[4] = molecular target: PI 4-kinase beta (Homo sapiens, UniProt Q9UBF8); assay: Kinase Glo Luminescent Kinase Assay (Kglo), assay D; assay type: biochemical; conditions: read-out: Assay D PI4Kβ IC50
[5] = molecular target: PI 3-kinase gamma (Homo sapiens, UniProt P48736); assay: TR-FRET Adapta assay, assay E; assay type: biochemical; conditions: read-out: Assay E PI3Kγ IC50
[6] = molecular target: PI 3-kinase delta (Homo sapiens, UniProt O00329); assay: TR-FRET Adapta assay, assay F
[7] = Microsomal clearance assay (M); conditions: intrinsic clearance in rat liver microsomes
Procedure: The experiments were performed in 96-well glass plates at 37° C. on an automated Tecan EVO platform. Test compounds at a concentration of 10 mM in pure DMSO were diluted 1:1000 in water to 10 μM. […] Reactions were initiated by the addition of 150 μL of a cofactor solution containing 2 mM NADPH.

[8] = molecular target: mTOR (Homo sapiens, UniProt P42345); assay: Lanthascreen kinase binding assay, assay G; conditions: read-out: Assay G mTOR IC50
Procedure: Lanthascreen™ Kinase Binding Assay for mTOR (G)
Binding of an inhibitor to the kinase competes for binding with the tracer, resulting in a loss of FRET.
50 nL of compound dilutions were dispensed onto white 384-well small volume polystyrene plate.

Chain of PI 3-kinase delta (O00329 whole entry): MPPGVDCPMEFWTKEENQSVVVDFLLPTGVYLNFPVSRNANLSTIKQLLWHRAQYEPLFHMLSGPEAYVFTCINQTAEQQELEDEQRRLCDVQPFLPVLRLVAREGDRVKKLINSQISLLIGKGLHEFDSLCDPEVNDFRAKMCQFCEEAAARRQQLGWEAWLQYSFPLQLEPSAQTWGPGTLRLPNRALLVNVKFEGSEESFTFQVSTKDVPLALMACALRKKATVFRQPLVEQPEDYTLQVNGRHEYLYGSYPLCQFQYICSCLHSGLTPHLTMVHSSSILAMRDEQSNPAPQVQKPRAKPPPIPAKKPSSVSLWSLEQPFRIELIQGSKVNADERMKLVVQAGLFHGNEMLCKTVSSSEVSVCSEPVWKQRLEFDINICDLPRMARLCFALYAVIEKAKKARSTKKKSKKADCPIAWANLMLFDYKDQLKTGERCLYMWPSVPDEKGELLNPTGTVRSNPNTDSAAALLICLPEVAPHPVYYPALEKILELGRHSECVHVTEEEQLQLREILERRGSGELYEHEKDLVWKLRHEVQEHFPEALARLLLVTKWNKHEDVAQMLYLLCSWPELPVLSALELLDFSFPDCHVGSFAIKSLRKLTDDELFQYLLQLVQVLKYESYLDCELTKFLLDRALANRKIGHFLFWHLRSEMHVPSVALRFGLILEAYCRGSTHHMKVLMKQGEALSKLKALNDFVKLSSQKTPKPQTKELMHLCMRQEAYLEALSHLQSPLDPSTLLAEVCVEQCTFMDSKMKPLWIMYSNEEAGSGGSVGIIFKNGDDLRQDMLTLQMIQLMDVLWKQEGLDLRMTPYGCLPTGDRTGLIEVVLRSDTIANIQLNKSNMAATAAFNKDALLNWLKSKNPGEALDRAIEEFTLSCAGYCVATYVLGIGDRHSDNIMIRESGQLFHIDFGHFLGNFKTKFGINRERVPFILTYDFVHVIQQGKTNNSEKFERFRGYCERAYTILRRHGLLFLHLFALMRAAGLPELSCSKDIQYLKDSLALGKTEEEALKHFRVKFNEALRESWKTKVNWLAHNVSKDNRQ
Chain of PI 3-kinase delta (P27986 461-568 partner): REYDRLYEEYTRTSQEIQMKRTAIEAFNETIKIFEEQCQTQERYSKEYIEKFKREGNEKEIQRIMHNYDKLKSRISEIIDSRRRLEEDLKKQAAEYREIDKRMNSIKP
Chain of Vps34 (Q8NEB9 whole entry, species assumed): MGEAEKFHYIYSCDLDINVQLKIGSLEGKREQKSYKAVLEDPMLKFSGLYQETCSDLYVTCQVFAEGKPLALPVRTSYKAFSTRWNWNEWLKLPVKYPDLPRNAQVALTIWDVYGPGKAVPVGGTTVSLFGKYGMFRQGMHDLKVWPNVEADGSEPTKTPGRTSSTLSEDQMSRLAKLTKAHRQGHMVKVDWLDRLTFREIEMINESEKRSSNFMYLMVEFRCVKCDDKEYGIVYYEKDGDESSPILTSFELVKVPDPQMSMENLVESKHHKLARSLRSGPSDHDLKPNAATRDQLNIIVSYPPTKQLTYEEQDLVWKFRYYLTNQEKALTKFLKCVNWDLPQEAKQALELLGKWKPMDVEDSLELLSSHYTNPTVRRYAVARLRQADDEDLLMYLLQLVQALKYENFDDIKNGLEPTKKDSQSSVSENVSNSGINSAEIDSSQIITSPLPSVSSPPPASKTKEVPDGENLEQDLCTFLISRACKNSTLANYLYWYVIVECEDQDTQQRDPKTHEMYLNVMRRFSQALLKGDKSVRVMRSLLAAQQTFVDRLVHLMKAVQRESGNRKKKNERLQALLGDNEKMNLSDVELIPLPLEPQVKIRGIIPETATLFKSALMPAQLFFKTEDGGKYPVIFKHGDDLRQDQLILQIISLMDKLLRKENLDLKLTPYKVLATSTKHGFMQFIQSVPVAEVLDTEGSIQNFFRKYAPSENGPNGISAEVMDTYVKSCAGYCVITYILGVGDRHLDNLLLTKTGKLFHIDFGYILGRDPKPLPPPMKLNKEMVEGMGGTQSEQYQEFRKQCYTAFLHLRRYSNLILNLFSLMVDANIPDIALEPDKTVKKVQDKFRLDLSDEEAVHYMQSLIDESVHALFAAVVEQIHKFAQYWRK
Chain of PI 3-kinase beta (P42338 whole entry): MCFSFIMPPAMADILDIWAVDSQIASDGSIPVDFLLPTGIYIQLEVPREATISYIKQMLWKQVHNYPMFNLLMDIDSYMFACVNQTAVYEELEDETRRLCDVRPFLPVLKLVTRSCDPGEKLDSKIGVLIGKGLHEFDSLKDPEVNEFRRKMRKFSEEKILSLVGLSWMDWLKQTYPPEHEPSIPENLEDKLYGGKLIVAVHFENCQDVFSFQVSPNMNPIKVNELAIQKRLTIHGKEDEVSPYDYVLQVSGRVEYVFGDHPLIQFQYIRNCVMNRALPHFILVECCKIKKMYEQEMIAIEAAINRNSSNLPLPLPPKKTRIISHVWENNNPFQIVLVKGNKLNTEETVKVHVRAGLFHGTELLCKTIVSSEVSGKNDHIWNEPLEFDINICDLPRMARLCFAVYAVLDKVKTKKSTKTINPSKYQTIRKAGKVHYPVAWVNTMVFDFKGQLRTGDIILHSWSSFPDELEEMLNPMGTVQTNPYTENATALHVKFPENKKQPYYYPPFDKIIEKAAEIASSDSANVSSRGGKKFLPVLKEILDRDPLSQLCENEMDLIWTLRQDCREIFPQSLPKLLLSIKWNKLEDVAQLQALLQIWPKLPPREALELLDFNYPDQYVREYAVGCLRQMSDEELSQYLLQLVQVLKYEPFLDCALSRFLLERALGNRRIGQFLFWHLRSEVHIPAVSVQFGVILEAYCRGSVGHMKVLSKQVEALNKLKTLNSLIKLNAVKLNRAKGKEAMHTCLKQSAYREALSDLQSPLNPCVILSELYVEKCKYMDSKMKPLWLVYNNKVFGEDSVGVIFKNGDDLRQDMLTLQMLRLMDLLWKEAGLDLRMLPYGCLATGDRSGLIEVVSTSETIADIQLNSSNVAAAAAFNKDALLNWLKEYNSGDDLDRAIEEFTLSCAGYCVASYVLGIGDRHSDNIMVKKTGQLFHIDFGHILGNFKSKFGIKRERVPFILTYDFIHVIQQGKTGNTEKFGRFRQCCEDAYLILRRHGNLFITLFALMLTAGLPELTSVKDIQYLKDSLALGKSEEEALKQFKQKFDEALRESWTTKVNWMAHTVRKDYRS
Chain of PI 3-kinase beta (P27986 461-568 partner): as the sequence (P27986 461-568 partner) above
Chain of PI 4-kinase beta (Q9UBF8 whole entry): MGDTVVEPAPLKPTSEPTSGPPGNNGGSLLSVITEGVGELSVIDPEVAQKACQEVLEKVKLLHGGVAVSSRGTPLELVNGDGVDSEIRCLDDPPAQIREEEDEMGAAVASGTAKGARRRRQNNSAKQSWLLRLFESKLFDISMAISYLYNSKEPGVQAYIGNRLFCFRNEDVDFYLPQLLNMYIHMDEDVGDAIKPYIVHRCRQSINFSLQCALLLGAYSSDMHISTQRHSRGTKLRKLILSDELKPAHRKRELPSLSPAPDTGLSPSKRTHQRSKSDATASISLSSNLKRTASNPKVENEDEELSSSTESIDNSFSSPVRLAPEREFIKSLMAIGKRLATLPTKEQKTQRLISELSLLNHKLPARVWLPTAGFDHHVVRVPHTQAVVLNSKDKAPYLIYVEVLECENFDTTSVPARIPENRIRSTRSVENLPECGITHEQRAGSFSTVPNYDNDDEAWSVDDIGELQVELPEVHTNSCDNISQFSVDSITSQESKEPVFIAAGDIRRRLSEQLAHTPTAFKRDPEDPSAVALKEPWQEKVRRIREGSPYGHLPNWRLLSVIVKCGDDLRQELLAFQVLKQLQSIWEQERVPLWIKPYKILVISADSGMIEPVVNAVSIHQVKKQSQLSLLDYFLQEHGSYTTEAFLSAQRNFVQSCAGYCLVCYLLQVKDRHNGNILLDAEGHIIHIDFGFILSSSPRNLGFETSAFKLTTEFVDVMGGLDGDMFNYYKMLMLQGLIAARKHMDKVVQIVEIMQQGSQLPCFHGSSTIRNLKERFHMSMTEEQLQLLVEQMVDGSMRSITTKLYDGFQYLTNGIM
Chain of PI 3-kinase alpha (P42336 whole entry): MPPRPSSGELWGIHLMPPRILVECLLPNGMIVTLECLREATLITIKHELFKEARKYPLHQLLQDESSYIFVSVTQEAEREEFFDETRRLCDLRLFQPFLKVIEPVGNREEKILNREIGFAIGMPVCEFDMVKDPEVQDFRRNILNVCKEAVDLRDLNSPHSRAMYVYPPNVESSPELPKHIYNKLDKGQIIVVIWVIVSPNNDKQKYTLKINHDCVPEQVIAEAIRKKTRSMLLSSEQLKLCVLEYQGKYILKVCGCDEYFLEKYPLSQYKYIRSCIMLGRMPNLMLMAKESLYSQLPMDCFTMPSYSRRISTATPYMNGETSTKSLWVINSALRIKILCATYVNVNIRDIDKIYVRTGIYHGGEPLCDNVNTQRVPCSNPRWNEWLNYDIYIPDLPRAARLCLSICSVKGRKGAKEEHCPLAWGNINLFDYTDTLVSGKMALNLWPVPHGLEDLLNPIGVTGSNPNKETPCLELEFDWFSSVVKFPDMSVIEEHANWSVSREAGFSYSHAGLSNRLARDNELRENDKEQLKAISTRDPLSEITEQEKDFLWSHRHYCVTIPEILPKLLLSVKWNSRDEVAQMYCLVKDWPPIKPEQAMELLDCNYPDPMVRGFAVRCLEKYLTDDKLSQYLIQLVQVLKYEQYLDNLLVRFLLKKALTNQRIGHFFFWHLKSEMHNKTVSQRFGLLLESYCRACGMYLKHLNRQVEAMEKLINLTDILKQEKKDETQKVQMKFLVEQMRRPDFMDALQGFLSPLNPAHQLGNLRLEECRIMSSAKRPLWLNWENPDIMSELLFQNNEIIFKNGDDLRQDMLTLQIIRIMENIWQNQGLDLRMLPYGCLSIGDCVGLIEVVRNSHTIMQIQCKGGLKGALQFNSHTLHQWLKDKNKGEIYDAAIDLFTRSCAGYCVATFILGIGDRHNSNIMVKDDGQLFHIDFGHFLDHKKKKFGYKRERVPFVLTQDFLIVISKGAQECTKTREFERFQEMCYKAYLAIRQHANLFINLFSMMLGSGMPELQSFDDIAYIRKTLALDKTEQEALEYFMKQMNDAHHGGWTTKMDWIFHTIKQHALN

Compound	IC50 [1]	IC50 [2]	IC50 [3]	IC50 [4]	IC50 [5]	IC50 ([6]; read-out: Assay F PI3Kδ IC50)	Assay M RLM CI(int) [7]	IC50 [8]	IC50 [6]
Cc1ncc(-c2nc(-c3cc(S(=O)(=O)NCC4CCOCC4)ccc3C)cnc2N)s1 [Example 45.2, 3-(5-Amino-6-(2-methylthiazol-5-yl)pyrazin-2-yl)-4-methyl-N-((tetrahydro-2H-pyran-4-yl)methyl)benzenesulfonamide]	40 nM	370 nM	6000 nM	5800 nM	18 nM	50 nM	194 µL/min/mg		
Cc1ncc(-c2nc(-c3cc(S(=O)(=O)NCC(F)(F)F)ccc3C)cnc2N)s1 [Example 45.5, 3-(5-Amino-6-(2-methylthiazol-5-yl)pyrazin-2-yl)-4-methyl-N-(2,2,2-trifluoroethyl)benzenesulfonamide]			650 nM	780 nM			147 µL/min/mg		
Cc1ncc(-c2nc(-c3cc(S(=O)(=O)N[C@@H]4CCOC4)ccc3C)cnc2N)s1 [Example 45.7b, (R)-3-(5-Amino-6-(2-methylthiazol-5-yl)pyrazin-2-yl)-4-methyl-N-(tetrahydrofuran-3-yl)benzenesulfonamide or (5)-3-(5-Amino-6-(2-methylthiazol-5-yl)pyrazin-2-yl)-4-methyl-N-(tetrahydrofuran-3-yl)benzenesulfonamide]							135 µL/min/mg		
Cc1nc(C)c(-c2nc(-c3cc(S(=O)(=O)NCC(C)(C)O)ccc3C)cnc2N)s1 [Example 46.1, 3-(5-Amino-6-(2,4-dimethylthiazol-5-yl)pyrazin-2-yl)-N-(2-hydroxy-2-methylpropyl)-4-methylbenzenesulfonamide]	1400 nM	> 10000 nM	> 10000 nM	> 10000 nM	210 nM	2600 nM	16 µL/min/mg	> 10000 nM	
Cc1cn(-c2nc(-c3cc(S(=O)(=O)NCC(C)(C)O)ccc3C)cnc2N)c(C)n1 [Example 50, 3-(5-Amino-6-(2,4-dimethyl-1H-imidazol-1-yl)pyrazin-2-yl)-N-(2-hydroxy-2-methylpropyl)-4-methylbenzenesulfonamide]	2500 nM	2800 nM	> 10000 nM	> 10000 nM	850 nM	> 10000 nM	28 µL/min/mg	> 10000 nM	
Cc1nnc(-c2nc(-c3cc(S(=O)(=O)NCC(C)(C)O)ccc3C)cnc2N)o1 [Example 90, 3-(5-Amino-6-(5-methyl-1,3,4-oxadiazol-2-yl)pyrazin-2-yl)-N-(2-hydroxy-2-methylpropyl)-4-methylbenzenesulfonamide]	2100 nM	940 nM	> 10000 nM	> 10000 nM	78 nM	2000 nM	19 µL/min/mg	> 10000 nM	
Cc1ccc(S(=O)(=O)NCC(C)(C)O)cc1-c1cnc(N)c(-c2noc(C3CC3)n2)n1 [Example 91, 3-(5-Amino-6-(5-cyclopropyl-1,2,4-oxadiazol-3-yl)pyrazin-2-yl)-N-(2-hydroxy-2-methylpropyl)-4-methylbenzenesulfonamide]	2350 nM	2550 nM	> 9550 nM	> 9550 nM	270 nM	2100 nM	46 µL/min/mg	> 9550 nM	
Cc1ccc(S(=O)(=O)N2CC3(CC(O)C3)C2)cc1-c1cnc(N)c(-n2cncn2)n1 [Example 101, 2-(3-(5-Amino-6-(1H-1,2,4-triazol-1-yl)pyrazin-2-yl)-4-methylphenylsulfonyl)-2-azaspiro[3.3]heptan-6-ol]	2000 nM	1700 nM	> 10000 nM	2400 nM	210 nM	3000 nM	39 µL/min/mg	> 10000 nM	
Cc1ncc(-c2nc(-c3cc(S(=O)(=O)NCC4(C)COC4)ccc3C)cnc2N)s1 [Example 120, 3-(5-Amino-6-(2-methylthiazol-5-yl)pyrazin-2-yl)-4-methyl-N-((3-methyloxetan-3-yl)methyl)benzenesulfonamide]	20 nM	1000 nM	1300 nM	2500 nM	4 nM	60 nM	95 µL/min/mg		
Cc1cc(C)c(S(=O)(=O)NCC(C)(C)O)cc1-c1cnc(N)c(-n2cncn2)n1 [Example 121, 5-(5-Amino-6-(1H-1,2,4-triazol-1-yl)pyrazin-2-yl)-N-(2-hydroxy-2-methylpropyl)-2,4-dimethylbenzenesulfonamide]	120 nM	1200 nM	> 10000 nM	510 nM	92 nM	960 nM	31 µL/min/mg	5200 nM	
Cc1ccc(S(=O)(=O)NC2CCC(CO)CC2)cc1-c1cnc(N)c(-n2cncn2)n1 (centres unmarked) [Example 127.6]	390 nM	2200 nM	> 10000 nM	> 10000 nM	160 nM	1500 nM	20 µL/min/mg	> 10000 nM	
Cc1ccc(S(=O)(=O)N2CCC(F)(F)CC2)cc1-c1cnc(N)c(-n2cncn2)n1 [Example 127.33]	740 nM	> 10000 nM	> 10000 nM	> 10000 nM	170 nM	8700 nM	560 µL/min/mg	> 10000 nM	
Cc1ccc(S(=O)(=O)N2CCC(F)CC2)cc1-c1cnc(N)c(-n2cncn2)n1 [Example 127.34]	1500 nM	5300 nM	> 10000 nM	3000 nM	180 nM	3200 nM	641 µL/min/mg	> 10000 nM	
Cc1cc(-c2nc(-c3cc(S(=O)(=O)NC[C@@H](C)O)ccc3C)cnc2N)ccn1 [Example 129, (R)-3-(5-Amino-6-(2-methylpyridin-4-yl)pyrazin-2-yl)-N-(2-hydroxypropyl)-4-methyl benzene sulfonamide trifluoroacetic acid salt]	130 nM	7300 nM	> 9100 nM	> 9100 nM	24 nM	550 nM	28 µL/min/mg	> 9100 nM	
Cc1cc(-c2nc(-c3cc(S(=O)(=O)NC[C@H](C)O)ccc3C)cnc2N)ccn1 [Example 129.9, (S)-3-(5-amino-6-(2-methylpyridin-4-yl)pyrazin-2-yl)-N-(2-hydroxypropyl)-4-methylbenzenesulfonamide]	420 nM	6900 nM	> 9100 nM	> 9100 nM	45 nM	940 nM	20 µL/min/mg	> 9100 nM	
Cc1cc(-c2nc(-c3cc(S(=O)(=O)NCC(C)(C)CN(C)C)ccc3C)cnc2N)ccn1 [Example 129.24, 3-(5-amino-6-(2-methylpyridin-4-yl)pyrazin-2-yl)-N-(3-(dimethylamino)-2,2-dimethylpropyl)-4-methylbenzenesulfonamide]	> 9100 nM	> 9100 nM	> 9100 nM	> 9100 nM	200 nM	6600 nM	755 µL/min/mg	> 9100 nM	
Cc1cc(-c2nc(-c3cc(S(=O)(=O)NCCN4CCOCC4)ccc3C)cnc2N)ccn1 [Example 129.28, 3-(5-amino-6-(2-methylpyridin-4-yl)pyrazin-2-yl)-4-methyl-N-(2-morpholinoethyl)benzenesulfonamide]	260 nM	5300 nM	> 9100 nM	> 9100 nM	140 nM	1100 nM	159 µL/min/mg	> 9100 nM	
Cc1cc(-c2nc(-c3cc(S(=O)(=O)NCC(C)(C)N4CCOCC4)ccc3C)cnc2N)ccn1 [Example 129.29, 3-(5-amino-6-(2-methylpyridin-4-yl)pyrazin-2-yl)-4-methyl-N-(2-methyl-2-morpholinopropyl)benzenesulfonamide]	690 nM	5400 nM	> 9100 nM	> 9100 nM	140 nM	1200 nM	>924 µL/min/mg	6000 nM	
Cc1cc(-c2nc(-c3cc(S(=O)(=O)N[C@@H]4CCC[C@H]4N)ccc3C)cnc2N)ccn1 [Example 129.39, 3-(5-amino-6-(2-methylpyridin-4-yl)pyrazin-2-yl)-N-((1R,2R)-2-aminocyclopentyl)-4-methylbenzenesulfonamide]	730 nM	7500 nM	> 9100 nM	> 9100 nM	110 nM		>924 µL/min/mg	> 9100 nM	910 nM
Cc1cc(-c2nc(-c3cc(S(=O)(=O)N4CCC(N)CC4)ccc3C)cnc2N)ccn1 [Example 129.41, 5-(5-(4-aminopiperidin-1-ylsulfonyl)-2-methylphenyl)-3-(2-methylpyridin-4-yl)pyrazin-2-amine]	1600 nM	4000 nM	> 9100 nM	> 9100 nM	320 nM	2300 nM	13 µL/min/mg	> 9100 nM	
